The text below walks through data of patent US8759363B2, “Quinazoline-based T cell proliferation inhibitors” (Yissum Research Development Company of the Hebrew …, priority 2010, dated 2014).

Each structure is given as a SMILES string. Entries after “also recorded” stand apart in the source; their conditions may differ. Where two headings read alike, the source gives them in different places.

In one experiment the test system is Keratinocytes. Kind of experiment: Keratinocyte proliferation, BrdU uptake. Type of experiment: cell-based. The following applies: Homo sapiens, serum activated, read-out: IC50 of stimulated cells. The procedure: Primary human keratinocytes were maintained in keratinocyte growth medium (KGM): DMEM, 25% Nutrient mixture F-12 (HAM), 10% fetal bovine serum, 5 μg/ml insulin, 0.4 μg/ml hydrocortisone, 0.1 nM cholera toxin, 10 ng/ml epidermal growth factor, 1.8×10^−4 M adenine, 5 μg/ml transferrin, 2 nM T3, 100,000 U/l penicillin, […] streptomycin, 0.1 mg/ml amphotericin. The primary keratinocytes were cultured from small biopsy specimens.
(§1) Cells were depleted of fetal calf serum (FCS) for 12 hours. They were then stimulated to proliferate by addition of ConA (10 μg/ml) for PBMC from healthy individuals and for Jurkat cells, FCS (10%) for HEK293 and A375 cells, PDGF (30 ng/ml) for NIH 3T3 cells, and EGF (30 ng/ml) for MDA-MB-231, Cells (1×10^5) were cultured in 96-well plates for 3 days in the presence or absence of inhibitors at the concentrations specified in the text. Each condition was tested in duplicate wells.
Proliferation was assessed by BrdU incorporation using a colorimetric ELISA kit (Roche, Germany). Subsequent to labeling with 10 μM BrdU, DNA was denatured and the cells were incubated with anti-BrdU-POD, prior to the addition of colorimetric substrate (TMB). The reaction product was quantified by measuring absorbance at 450 nm in an ELISA plate reader (ELx800 BIO-TEK Instruments Inc.). […]

For another experiment, the system named is PC3. Briefly: PC-3 proliferation, BrdU uptake. The following applies: Homo sapiens. Type of experiment: cell-based.
In the next experiment the test system is HEK293. Kind of experiment: HEK293 proliferation, BrdU uptake. It is filed as cell-based. To be noted: Homo sapiens. The procedure: as §1
(§2) Proliferation was assessed by BrdU incorporation using a colorimetric ELISA kit (Roche, Germany). Subsequent to labeling with 10 μM BrdU, DNA was denatured and the cells were incubated with anti-BrdU-POD, prior to the addition of colorimetric substrate (TMB). The reaction product was quantified by measuring absorbance at 450 nm in an ELISA plate reader (ELx800 BIO-TEK Instruments Inc.).
(§3) To characterize the mode of action of 2 (S101) in more detail, we first examined whether 2 inhibits non-hematopoietic cell lines. We studied the effect of 2 on the growth of four cell lines: NIH 3T3 (mouse embryonic fibroblasts), A-431 (human vulval carcinoma cells), MDA-MB-468 (human breast carcinoma cells), and PANC-1 (human pancreatic carcinoma cells) (FIGS. 1A-B). We also tested the inhibitors on human keratinocytes. […]

In another experiment the test system is NIH3T3. Kind of experiment: NIH3T3 proliferation, BrdU uptake. The following applies: Mus musculus. Type of experiment: cell-based. The procedure:
as §1, §2, §3

Experiment [1] has as its system PBMC depleted of CD3+ cells. Briefly: Proliferation of PBMC depleted of CD3+ cells, BrdU. Type of experiment: cell-based. To be noted: Homo sapiens, stimulated by ODN2006 or LPS, stated as similar to ~0.5 μM, read-out: IC50 for PBMCs depleted of CD3+ cells. The method, then:
Blood samples were taken from healthy donors and loaded on a Ficoll density gradient to purify the PBMC population. T cells were purified by human anti-CD3 using an autoMACS instrument (Miltenyi Biotec, Bergisch-Gladbach, Germany), according to the manufacturer's instructions. The identity of T cells was confirmed by flow cytometry, as they stained positive for CD3. Cells were stimulated with ConA (10 μg/ml), ODN2006 (0.5 μg/ml; Enzo Life Sciences), or LPS (50 μg/ml; Sigma-Aldrich, Steinheim, Germany), for 72 h in the presence of the inhibitor, and their proliferation was measured in the BrdU incorporation assay as will be later described.
as §2
PBMC consist of a mixture of mononucleated cells, mostly T cells. To identify the cell type that was inhibited by 2, we first purified T cells from PBMC with an autoMACS apparatus (Miltenyi Biotec), using anti-CD3 antibodies. We were now able to compare three cell populations: total PBMC, CD3+ cells purified from PBMC, and PBMC that had been depleted of CD3+ cells. […]

Experiment [2] deals with PC-3, HEK293, NIH-3T3, A375, MDA-MB-231. Kind of experiment: BrdU uptake by non-hematopoietic cell lines compared with PBMC and Jurkat. It is filed as cell-based. To be noted: stimulated and non-stimulated cells. The procedure:
as §1, §2, §3

The test system of experiment [3] is IL-2 secretion by Jurkat and PBMC cells. Kind of experiment: IL-2 secretion after stimulation, ELISA. To be noted: anti-TCR, anti-CD28, PMA, ionomycin, ConA stimulation; up to 5 μM inhibitor. It is filed as cell-based, human. The method, then: Jurkat or PBMC cells were treated for 12 h with 1 μM, 0.5 μM or no inhibitor. Cells (1×10^6) were plated in 24-well plates (Nunc) and stimulated by C305 (dilution 1:500), anti-CD28 (1:100), PMA (50 ng/ml) or ionomycin (1 μM) for 12 h. Alternately, cells were stimulated for 24, 48 and 72 h in MLR. After stimulation cells were centrifuged at 130×g for 5 minutes at room temperature.
Supernatants were collected and IL-2 was assayed using the IL-2 ELISA kit (BioSource International USA, KH0022) according to the manufacturer's instructions. Absorbance was read at 450 nm in an ELISA plate reader (ELx800 BIO-TEK Instruments Inc.).
Jurkat cells, which originate from leukemia, divide with no need of exogenous IL-2 stimulation since they produce their own, whereas PBMC proliferation requires exogenous IL-2 for growth. As expected, IL-2 secretion levels were lower in cells isolated from the blood (PBMC) than in Jurkat cells (FIGS. 5A-B). We analyzed the effect of 2 on IL-2 secretion in both Jurkat (FIG. 5A) and PBMC (FIG. 5B) cells, using a variety of T cell stimuli. Cells were stimulated with an antibody to the TCR alone or in combination with anti-CD28 or phorbol 12-myristate 13-acetate (PMA). In order to bypass the TCR, we also stimulated the cells with a combination of ionomycin, PMA and anti-CD28 (FIG. 5A). […]

Usually IC50 stands for the concentration needed to halve the response being measured.

For the compound `COc1cc(-c2nc(Nc3ccc(C)cc3)c3ccccc3n2)cc(OC)c1OC` [Compound 2, N-p-tolyl-2-(3,4,5-trimethoxyphenyl)quinazolin-4-amine], the half-inhibitory concentration (IC50) is > 10 µM with Keratinocytes; ~10 µM in the experiment on PC3 (PC3, non-stimulated, read-out: IC50 of non-stimulated cells); > 10 µM in the experiment on PC3 (PC3, stimulated, read-out: IC50 of stimulated cells); ~10 µM in the experiment on HEK293 (HEK293, non-stimulated, read-out: IC50 of non-stimulated cells); ~10 µM with HEK293 (HEK293, serum (FCS 10%) activated, read-out: IC50 of stimulated cells); ~7 µM in the experiment on NIH3T3 (NIH3T3, PDGF (30 ng/ml) activated, read-out: IC50 of stimulated cells). The half-maximal inhibitory concentration (IC50) in the experiment with NIH3T3 (NIH3T3, non-stimulated, read-out: IC50 of non-stimulated cells) was ~3 µM; in experiment [1], ~500 nM. Besides, the “IC50 values in various cells in comparison to IC50 for PBMC and Jurkat cells” value in experiment [2] is reported as “higher by two orders of magnitude”. Also, in experiment [3], the “effect on IL-2 levels in the medium” value was “no effect; also recorded: did not affect”.
